Assay results as given in patent US20070185079A1, “Therapeutic agents I” (ASTRAZENECA AB, priority 2004, published 2007).

Legend:
[1] = biological target: T1, rat Melanin concentrating hormone receptor 1 (MCH1r) (Rattus norvegicus, UniProt P97639); assay: MCH1 receptor radioligand binding, membranes from HEK293 cells, 125I-MCH; details: HEK293 cell membranes stably expressing rat MCH1r, room temperature, 60 minutes
T1 construct: expressed in transfected cells
From the text: (§1) Non-specific binding was subtracted from all values determined. Maximum binding was that determined in the absence of any competitor following subtraction of the value determined for non-specific binding. Binding of compounds at various concentrations was plotted according to the equation y=A+((B−A)/1+((C/x)ˆAD))) and IC50 estimated where • A is the bottom plateau of the curve i.e. the final minimum y value • B is the top of the plateau of the curve i.e. the final maximum y value • C is the x value at the middle of the curve. This represents the log EC50 value when A+B=100 • D is the slope factor. x is the original known x values. y is the original known y values.
Assays were also performed on membranes prepared from HEK293 cells stably expressing the rat Melanin concentrating hormone receptor 1 (MCH1r) (Lembo et al. Nature Cell Biol 1 267-271). Assays were performed in a 96-well plate format in a final reaction volume of 200 μl per well. […] Radioligand retained on the filters was quantified using a1450 Microbeta TRILUX (Wallac, Finland).

[2] = biological target: T2, human Melanin concentrating hormone receptor 1 (MCH1r) (Homo sapiens, UniProt Q99705); assay: MCH1 receptor radioligand binding, membranes from CHO-K1 cells, 125I-MCH; details: CHO-K1 cell membranes expressing human MCH1r, 30° C., 60 minutes, read-out: IC50 in human MCHr binding assay
T2 construct: expressed in transfected cells; host or cells: CHO-K1
Experimental: MCH1 Receptor Radioligand Binding.
Assays were performed on membranes prepared from CHO-K1 cells expressing the human Melanin concentrating hormone receptor 1 (MCH1r). Assays were performed in a 96-well plate format in a final reaction volume of 200 μl per well. Each well contained 6 μg of membrane proteins diluted in binding buffer (50 mM Tris, 3 mM MgCl2, 0.05% bovine serum albumin (BSA) and the radioligand ^125I-MCH (IM344 Amersham) was added to give 10 000 cpm (counts per minute) per well. Each well contained 2 μl of the appropriate concentration of competitive antagonist prepared in DMSO and left to stand at 30° C. for 60 minutes. Non-specific binding was determined as that remaining following incubation with 1 μM MCH (Melanin concentrating hormone, H-1482 Bachem). The reaction was terminated by transfer of the reaction to GF/A filters using a Micro96 Harvester (Skatron Instruments, Norway). Filters were washed with assay buffer. Radioligand retained on the filters was quantified using a1450 Microbeta TRILUX (Wallac , Finland).
as §1

T2 sequence (Q99705 whole entry): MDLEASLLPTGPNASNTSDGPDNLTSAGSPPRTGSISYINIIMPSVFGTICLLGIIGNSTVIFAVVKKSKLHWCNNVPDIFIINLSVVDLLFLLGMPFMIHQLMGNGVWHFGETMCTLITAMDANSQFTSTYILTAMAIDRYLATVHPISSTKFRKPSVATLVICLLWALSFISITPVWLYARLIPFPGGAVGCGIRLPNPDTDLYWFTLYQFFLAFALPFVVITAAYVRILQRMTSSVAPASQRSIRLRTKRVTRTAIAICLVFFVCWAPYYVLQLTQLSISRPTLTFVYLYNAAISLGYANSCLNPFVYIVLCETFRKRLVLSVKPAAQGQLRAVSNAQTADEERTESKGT
T1 sequence (P97639 whole entry): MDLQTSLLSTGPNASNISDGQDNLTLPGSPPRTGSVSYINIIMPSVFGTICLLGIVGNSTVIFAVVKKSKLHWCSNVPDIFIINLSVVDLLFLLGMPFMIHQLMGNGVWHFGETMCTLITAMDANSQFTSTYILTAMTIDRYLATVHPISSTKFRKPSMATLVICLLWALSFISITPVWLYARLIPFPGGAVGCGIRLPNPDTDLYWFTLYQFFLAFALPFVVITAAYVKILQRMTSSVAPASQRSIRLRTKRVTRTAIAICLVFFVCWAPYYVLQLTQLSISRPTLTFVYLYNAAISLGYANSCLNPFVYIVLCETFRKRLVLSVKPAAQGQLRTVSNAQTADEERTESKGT

| IC50 [1] [nM] | IC50 [2] [nM] | Structure (SMILES) |
| --- | --- | --- |
| 79 |  | Cc1cc(N[C@H]2CC[C@H](NCc3cn(C)c4ccccc34)C2)nc2ccc(F)cc12 [Example 6, (1S,3S)-N-(6-fluoro-4-methylquinolin-2-yl)-N′-[(1-methyl-1H-indol-3-yl)methyl]cyclopentane-1,3-diamine] |
|  | 44 | COc1ccc2c(C)cc(N[C@H]3C[C@@H]4C[C@H]3[C@@H](NCc3cn(C)c5ccccc35)C4)nc2c1 [Example 32, (1S,2S,4R,6S)-N-(7-methoxy-4-methylquinolin-2-yl)-N′-[(1-methyl-1H-indol-3-yl)methyl]bicyclo[2.2.1]heptane-2,6-diamine] |
|  | 94 | COc1ccc2nc(N[C@H]3CC[C@H](NCc4ccc(-c5cccs5)s4)C3)cc(C)c2c1 [Example 16, (1S,3S)-N-(2,2′-bithien-5-ylmethyl)-N′-(6-methoxy-4-methylquinolin-2-yl)cyclopentane-1,3-diamine] |
|  | 26 | COc1cc(N[C@H]2CCC[C@H](NCc3ccsc3)C2)nc2ccc(F)cc12 [Example 5, (1S3S)-N-(6-fluoro-4-methoxyquinolin-2-yl)-N′-(3-thienylmethyl)cyclohexane-1,3-diamine] |
|  | 830 | Cc1cc(N[C@H]2CC[C@H](NCc3cn(C)c4cnccc34)C2)nc2ccc(F)cc12 [Example 35, (1S,3S)-N-(6-Fluoro-4-methylquinolin-2-yl)-N′-[(1-methyl-1H-pyrrolo[2,3-c]pyridin-3-yl)methyl]cyclopentane-1,3-diamine] |
|  | 560 | COc1ccc2nc(N3CC4CCC(C3)C4N(C)Cc3ccsc3)cc(C)c2c1 (stereo not drawn) [Example 20, 3-(6-Methoxy-4-methylquinolin-2-yl)-N-methyl-N-(3-thienylmethyl)-3-azabicyclo [3.2.1]octan-8-amine] |
